Assay results taken from ChEMBL document CHEMBL4257462, “Benzisoxazole: a privileged scaffold for medicinal chemistry” (Medchemcomm, 2017).
Values after ≈ are worked out from the molar mass of the structure shown.

Tests used:
[1] = test system: Mycobacterium tuberculosis; assay: Antimycobacterial activity against Mycobacterium tuberculosis H37Rv; type: functional
[2] = Inhibition of urease (unknown origin)
[3] = test system: Geotrichum candidum; assay: Antimicrobial activity against Geotrichum candidum; type: functional
[4] = molecular target: Acetylcholinesterase (Electrophorus electricus, UniProt O42275); assay: Inhibition of electric eel AChE
Sequence of Acetylcholinesterase (Electrophorus electricus, UniProt O42275) (O42275 whole entry): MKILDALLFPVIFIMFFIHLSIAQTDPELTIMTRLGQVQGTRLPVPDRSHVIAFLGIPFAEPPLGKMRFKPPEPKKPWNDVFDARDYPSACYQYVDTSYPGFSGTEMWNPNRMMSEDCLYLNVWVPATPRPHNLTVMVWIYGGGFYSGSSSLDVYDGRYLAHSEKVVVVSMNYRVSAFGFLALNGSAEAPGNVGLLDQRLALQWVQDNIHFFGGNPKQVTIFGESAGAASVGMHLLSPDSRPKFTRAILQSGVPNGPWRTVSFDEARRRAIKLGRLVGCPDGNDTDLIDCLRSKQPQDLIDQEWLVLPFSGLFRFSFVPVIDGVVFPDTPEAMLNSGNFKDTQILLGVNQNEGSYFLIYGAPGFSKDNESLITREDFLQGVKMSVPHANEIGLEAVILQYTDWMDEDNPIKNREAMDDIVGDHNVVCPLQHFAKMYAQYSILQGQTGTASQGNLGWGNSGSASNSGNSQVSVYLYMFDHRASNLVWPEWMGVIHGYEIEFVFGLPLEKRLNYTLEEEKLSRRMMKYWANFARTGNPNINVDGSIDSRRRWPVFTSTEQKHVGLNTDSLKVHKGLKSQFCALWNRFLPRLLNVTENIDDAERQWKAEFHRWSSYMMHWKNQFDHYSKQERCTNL

[5] = molecular target: Acetylcholinesterase (Homo sapiens, UniProt P22303); assay: Inhibition of human serum AChE
Sequence of Acetylcholinesterase (Homo sapiens, UniProt P22303) (P22303 whole entry): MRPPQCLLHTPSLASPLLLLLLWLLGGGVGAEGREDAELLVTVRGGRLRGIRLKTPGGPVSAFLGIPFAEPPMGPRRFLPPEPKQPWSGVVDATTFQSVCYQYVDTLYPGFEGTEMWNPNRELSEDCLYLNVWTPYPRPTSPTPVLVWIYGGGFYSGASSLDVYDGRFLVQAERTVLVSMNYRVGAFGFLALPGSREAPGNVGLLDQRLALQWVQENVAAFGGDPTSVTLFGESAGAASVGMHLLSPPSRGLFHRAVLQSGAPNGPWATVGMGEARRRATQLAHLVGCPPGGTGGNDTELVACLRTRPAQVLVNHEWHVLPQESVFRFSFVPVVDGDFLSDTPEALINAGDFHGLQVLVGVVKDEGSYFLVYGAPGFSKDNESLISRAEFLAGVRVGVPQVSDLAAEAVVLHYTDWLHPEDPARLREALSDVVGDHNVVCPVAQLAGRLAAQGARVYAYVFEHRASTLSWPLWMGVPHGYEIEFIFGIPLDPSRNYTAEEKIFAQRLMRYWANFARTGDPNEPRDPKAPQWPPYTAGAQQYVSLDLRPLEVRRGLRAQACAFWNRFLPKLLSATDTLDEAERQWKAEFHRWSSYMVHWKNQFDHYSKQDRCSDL

[6] = molecular target: T1, Acetylcholinesterase (Rattus norvegicus, UniProt P37136); assay: Inhibition of rat brain AChE
T1 sequence (P37136 whole entry): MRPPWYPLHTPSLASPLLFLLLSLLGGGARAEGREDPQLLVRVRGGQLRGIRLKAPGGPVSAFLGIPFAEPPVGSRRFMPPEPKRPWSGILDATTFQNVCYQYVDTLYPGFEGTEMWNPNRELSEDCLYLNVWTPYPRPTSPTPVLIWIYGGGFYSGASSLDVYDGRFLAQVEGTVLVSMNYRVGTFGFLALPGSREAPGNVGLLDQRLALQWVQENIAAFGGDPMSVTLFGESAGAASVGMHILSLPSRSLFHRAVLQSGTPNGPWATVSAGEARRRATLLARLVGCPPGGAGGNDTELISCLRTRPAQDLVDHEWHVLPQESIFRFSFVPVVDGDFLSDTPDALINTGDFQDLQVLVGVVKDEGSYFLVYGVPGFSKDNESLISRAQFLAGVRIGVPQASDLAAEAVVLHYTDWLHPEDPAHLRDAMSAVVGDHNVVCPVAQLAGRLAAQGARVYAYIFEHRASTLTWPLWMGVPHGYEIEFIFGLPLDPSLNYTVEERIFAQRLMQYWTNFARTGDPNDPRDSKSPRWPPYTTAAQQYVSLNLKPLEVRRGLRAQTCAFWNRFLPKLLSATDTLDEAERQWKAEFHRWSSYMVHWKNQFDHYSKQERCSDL

[7] = test system: HepG2; assay: Growth inhibition of human HepG2 cells after 24 hrs by MTT assay relative to control; type: functional
[8] = molecular target: D(2) dopamine receptor (Rattus norvegicus, UniProt P61169); assay: Displacement of [3H]methylspiperone from D2 receptor in rat striatal membranes; type: cell membranes, Striatum, Membrane
Sequence of D(2) dopamine receptor (P61169 whole entry): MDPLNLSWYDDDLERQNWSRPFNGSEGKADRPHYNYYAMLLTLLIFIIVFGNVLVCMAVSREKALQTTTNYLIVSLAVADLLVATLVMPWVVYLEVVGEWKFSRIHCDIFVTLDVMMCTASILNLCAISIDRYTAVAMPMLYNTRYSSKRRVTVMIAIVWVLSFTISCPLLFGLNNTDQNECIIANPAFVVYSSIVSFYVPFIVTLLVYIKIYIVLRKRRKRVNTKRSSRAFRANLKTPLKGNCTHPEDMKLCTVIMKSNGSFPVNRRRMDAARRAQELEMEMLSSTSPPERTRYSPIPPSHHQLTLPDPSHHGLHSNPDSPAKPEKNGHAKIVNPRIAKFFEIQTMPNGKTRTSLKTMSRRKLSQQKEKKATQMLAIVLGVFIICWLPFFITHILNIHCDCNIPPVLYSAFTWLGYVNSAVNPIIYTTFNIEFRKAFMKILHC

[9] = molecular target: 5-hydroxytryptamine receptor 2A (Rattus norvegicus, UniProt P14842); assay: Displacement of [3H]ketanserin from 5-HT2A receptor in rat frontal cortex membranes; type: cell membranes, Membrane
Sequence of 5-hydroxytryptamine receptor 2A (P14842 whole entry): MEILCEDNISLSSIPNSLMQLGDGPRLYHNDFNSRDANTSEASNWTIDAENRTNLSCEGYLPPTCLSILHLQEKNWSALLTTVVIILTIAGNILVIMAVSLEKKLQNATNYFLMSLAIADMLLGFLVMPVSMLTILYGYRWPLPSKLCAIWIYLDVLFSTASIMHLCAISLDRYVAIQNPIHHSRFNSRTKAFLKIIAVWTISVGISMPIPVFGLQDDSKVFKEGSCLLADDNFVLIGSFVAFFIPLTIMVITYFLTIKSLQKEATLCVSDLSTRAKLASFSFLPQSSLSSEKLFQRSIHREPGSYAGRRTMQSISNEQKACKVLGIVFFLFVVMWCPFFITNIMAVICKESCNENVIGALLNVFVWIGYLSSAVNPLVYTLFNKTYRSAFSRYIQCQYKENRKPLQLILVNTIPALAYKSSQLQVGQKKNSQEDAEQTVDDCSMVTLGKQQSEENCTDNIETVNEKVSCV

Structure (SMILES): O=S(=O)(c1ccccc1)N1CCN(c2noc3ccccc23)CC1
- MIC [1]: 3.25 µg/mL (≈ 9.46 µM)

Structure (SMILES): COc1ccc(NC(=S)NC(Cc2ccccc2)C(=O)N2CCCC2C(=O)N2CCC(c3noc4cc(F)ccc34)CC2)cc1 (centres undefined)
- IC50 [2]: 4.9 µM

Structure (SMILES): O=C(Nc1ccccc1)c1onc2ccccc12
- MIC [3]: 840 µM (≈ 200 µg/mL)

Structure (SMILES): CCCN1C(=O)Cc2cc(C(=O)CN3CCN(c4noc5ccccc45)CC3)ccc21
- MIC [1]: 3.12 µg/mL (≈ 7.46 µM)

Structure (SMILES): Fc1ccc2c(C3CCN(CCN4CCCC4)CC3)noc2c1
- IC50 [4]: 2.51 µM
- IC50 [5]: 3.29 µM
- IC50 [6]: 5.3 µM

Structure (SMILES): O=C(c1ccccc1)c1onc2ccccc12
- MIC [3]: 44.8 µM (≈ 10 µg/mL)

Structure (SMILES): O=C(N1CCCC1)N1CCC(c2noc3cc(F)ccc23)CC1
- growth inhibition (GI) [7]: 39.19%

Structure (SMILES): Fc1ccc2c(C3CCN(CCN4CCCCC4)CC3)noc2c1
- IC50 [4]: 1.5 µM
- IC50 [5]: 2.22 µM
- IC50 [6]: 1.29 µM

Structure (SMILES): O=C(c1ccccc1)N(C(=O)c1ccccc1)c1onc2ccccc12
- MIC [3]: 584 µM (≈ 200 µg/mL)

Structure (SMILES): O=C(N1CCOCC1)N1CCC(c2noc3cc(F)ccc23)CC1
- growth inhibition (GI) [7]: 37.75%

Structure (SMILES): Cc1ccc(S(=O)(=O)N2CCN(c3noc4cccc(Cl)c34)CC2)cc1
- MIC [1]: 6.25 µg/mL (≈ 15.9 µM)

Structure (SMILES): O=C(c1c(F)cccc1F)N1CCC(c2noc3cc(F)ccc23)CC1
- growth inhibition (GI) [7]: 42.06%

Structure (SMILES): CCCN1C(=O)C(C)c2cc(C(=O)CN3CCN(c4noc5cc(Cl)ccc45)CC3)ccc21 (centres undefined)
- MIC [1]: 3.12 µg/mL (≈ 6.68 µM)

Structure (SMILES): O=C1c2ccc(OCCCN3CCC(c4noc5cc(F)ccc45)CC3)cc2OCC1CO (centres undefined)
- IC50 [8]: 0.017 µM
- IC50 [9]: 0.0062 µM
